System: bleeding time
Conditions: rat, in vivo, 2 mg/kg

heparin
increase in the bleeding time: 13
